Test results from patent US20220348590A1, “CYCLOOXYGENASE-2 INHIBITORS AND USES THEREOF” (The Board Institute, Inc., priority 2019, published 2022).
Values after ≈ are worked out from the molar mass of the structure shown. Like-named read-outs stand apart in the source and are kept apart here.

Tests used:
[1] = biological target: T1, ovine COX-1 (oCOX-1) (Ovis aries, UniProt P05979); assay: LCMS-based COX-1 enzymatic inhibition assay (PGE2 quantification); assay type: biochemical
T1 construct: purchased Cayman Chemicals (Ann Arbor, Mich.)
T1 sequence (P05979 25-600): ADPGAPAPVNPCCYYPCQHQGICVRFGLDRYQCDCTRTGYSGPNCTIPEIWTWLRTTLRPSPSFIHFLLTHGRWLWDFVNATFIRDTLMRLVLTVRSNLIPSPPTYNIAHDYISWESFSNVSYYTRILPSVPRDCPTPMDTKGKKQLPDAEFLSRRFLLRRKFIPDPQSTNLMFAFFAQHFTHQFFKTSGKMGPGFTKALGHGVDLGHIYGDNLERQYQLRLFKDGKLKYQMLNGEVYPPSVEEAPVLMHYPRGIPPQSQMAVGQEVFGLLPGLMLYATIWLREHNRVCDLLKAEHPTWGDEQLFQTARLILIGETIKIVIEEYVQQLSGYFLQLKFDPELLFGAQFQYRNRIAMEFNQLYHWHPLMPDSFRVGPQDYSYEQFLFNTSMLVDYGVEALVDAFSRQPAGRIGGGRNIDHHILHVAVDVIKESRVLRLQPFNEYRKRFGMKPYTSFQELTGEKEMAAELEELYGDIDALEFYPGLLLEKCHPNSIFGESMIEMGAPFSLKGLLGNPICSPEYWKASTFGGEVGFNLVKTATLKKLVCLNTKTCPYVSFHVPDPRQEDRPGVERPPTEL
Method in brief: (§1)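 PGE2 formed from arachidonic acid (final 5 μM, 2 min) was measured by LC-MS-MS against DMSO controls. Enzyme (oCOX-1 0.1 μg or hCOX2 0.2 μg) with hematin/epinephrine cofactors at pH 8.0 was given 10 min at 37 °C with compound first. Twelve-point curves run three times gave IC50.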

[2] = Human Microsome Stability; assay type: in vitro ADME; conditions: human microsomes
[3] = biological target: T2, human recombinant COX2 (hCOX2) (UniProt P35354); assay: LCMS-based COX2 enzymatic inhibition assay (PGE2 quantification); assay type: biochemical; set-up: COX2 2 minutes pge2/pge2d4 area ratio Avg; other: 2 minutes; readout pge2/pge2d4 area ratio; average; COX2 2 minutes pge2/pge2d4 area ratio Avg; LLE; average LLE; COX2 2 minutes pge2 area (counts) Avg; readout pge2 area (counts); other: 2 min; "ovine COX2 (oCOX2), human recombinant COX2 (hCOX2)"; conditions: 2 minutes; for COX2 2 minutes pge2/pge2d4 area ratio Avg. LLE / COX2 2 minutes pge2 area (counts) Avg. LLE: average LLE; for IC50: average
T2 sequence (P35354 1-604): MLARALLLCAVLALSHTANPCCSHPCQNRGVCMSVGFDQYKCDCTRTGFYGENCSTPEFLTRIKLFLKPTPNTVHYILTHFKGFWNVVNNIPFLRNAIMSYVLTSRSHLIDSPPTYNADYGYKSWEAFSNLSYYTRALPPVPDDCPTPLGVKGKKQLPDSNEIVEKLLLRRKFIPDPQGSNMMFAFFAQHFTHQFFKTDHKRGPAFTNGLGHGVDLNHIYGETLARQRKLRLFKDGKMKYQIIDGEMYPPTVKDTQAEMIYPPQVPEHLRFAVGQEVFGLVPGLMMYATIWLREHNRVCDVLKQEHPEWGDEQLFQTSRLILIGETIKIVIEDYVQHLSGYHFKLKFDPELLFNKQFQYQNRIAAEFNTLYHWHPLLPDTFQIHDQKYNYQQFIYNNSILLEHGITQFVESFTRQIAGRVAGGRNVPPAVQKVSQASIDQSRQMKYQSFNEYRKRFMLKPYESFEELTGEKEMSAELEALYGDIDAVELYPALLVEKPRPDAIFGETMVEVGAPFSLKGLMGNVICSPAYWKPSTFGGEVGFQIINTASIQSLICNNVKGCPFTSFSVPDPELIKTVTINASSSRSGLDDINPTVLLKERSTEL
Method in brief: as §1

[4] = Rat Plasma Protein Stability (% Remaining); assay type: in vitro ADME; conditions: average
[5] = rat plasma protein binding (PPB) assay; assay type: in vitro ADME; conditions: average, read-out: Rat Plasma Protein Binding % Bound Avg (converted)
Protocol: We have adapted a previously reported cyclooxygenase enzymatic assay utilizing LCMS quantification of PGE2 as the product of COX-1 and COX2 catalyzed conversion of arachidonic acid to evaluate the binding properties of newly synthesized ligands [Cao, 2011]. These optimized and miniaturized (384-well plates) LCMS-based COX-1 and COX2 enzymatic assays enabled us to quickly evaluate newly synthesized ligands for COX2 binding affinity and selectivity vs COX-1. Using a shorter ligand-enzyme incubation time in the LCMS assay (2 minutes vs 10 minutes) also permitted us to prioritize ligands with faster binding kinetics. Considering the relatively slow on-rate kinetics of known coxibs, due to their 3-step binding mechanism [Marnett, 2009], we believe that optimizing this critical parameter will be key to the successful development of a COX2 PET tracer. Using these enzymatic assays, we have evaluated>200 newly synthesized ligands against COX2 and >20 ligands against COX-1. Another critical property necessary for a good PET radiotracer is to have low non-specific binding (NSB) to increase the free fraction and maximize the signal to noise ratio. This property can be evaluated using in-vitro protein binding assays, and we have now evaluated>50 newly synthesized ligands in mouse, rat and human plasma protein binding (PPB) assays as well as >15 ligands in a mouse brain protein binding (BPB) assay.

[6] = PBS Solubility (no DMSO); assay type: physicochemical; conditions: aqueous buffer, thermodynamic from solid, average
[7] = Mouse Plasma Protein Stability (% Remaining); assay type: in vitro ADME; conditions: average
[8] = 10 minutes, pge2/pge2d4 area ratio, head of this section not shown, inferred
[9] = 10 minutes, pge2 area (counts), head of this section not shown, inferred
[10] = readout pge2/pge2d4 area ratio, read-out: COX2 2 minutes pge2/pge2d4 area ratio Avg. IC50
[11] = readout pge2 area (counts), read-out: COX2 2 minutes pge2 area (counts) Avg. IC50
[12] = 10 minutes, readout pge2/pge2d4 area ratio, average LLE
[13] = 10 minutes, readout pge2 area (counts), average LLE
[14] = 10 minutes, readout pge2/pge2d4 area ratio, average, read-out: COX1 10 minutes pge2/pge2d4 area ratio Avg. IC50
[15] = 10 minutes, readout pge2 area (counts), average, read-out: COX1 10 minutes pge2 area (counts) Avg. IC50
[16] = 10 minutes, pge2 area (counts), head of this section not shown, inferred, read-out: COX1 10 minutes pge2 area (counts) Avg. IC50

IC50 [1, 14] | IC50 [1, 15] | solubility [6] | IC50 [1, 16] | Mouse Plasma Protein Stability % Remaining Avg [7] | SMILES | IC50 [1] | COX1 10 minutes pge2/pge2d4 area ratio Avg. LLE [1, 8] | COX1 10 minutes pge2 area (counts) Avg. LLE [1, 9] | Human Microsome Stability % Remaining Avg [2] | COX2 2 minutes pge2/pge2d4 area ratio Avg. LLE ([3]; readout pge2/pge2d4 area ratio) | IC50 [3, 10] | COX2 2 minutes pge2 area (counts) Avg. LLE ([3]; readout pge2 area (counts)) | IC50 [3, 11] | COX1 10 minutes pge2/pge2d4 area ratio Avg. LLE [1, 12] | COX1 10 minutes pge2 area (counts) Avg. LLE [1, 13] | Rat Plasma Protein Stability % Remaining Avg [4] | fraction unbound [5]
– | – | – | – | – | CS(=O)(=O)c1ccc(-c2cccc(NCc3cccs3)n2)cn1 [Compound 59] | 52000 nM | 1.754 | 1.754 | 28% | 5.112 | 32 nM | 5.062 | 42.6 nM | – | – | – | –
– | – | – | – | – | CS(=O)(=O)c1ccc(-c2nc(NCc3ccco3)ccc2F)cc1 [Compound 218] | – | – | – | 15% | 3.092 | 1610 nM | 3.132 | 1720 nM | – | – | – | –
– | – | – | – | – | CS(=O)(=O)c1ccc(-c2cccc(OCc3ccco3)n2)cc1 [Compound 28] | 52000 nM | – | – | 15% | 4.722 | 13.6 nM | 4.78 | 12.6 nM | 1.104 | 1.104 | 102.8% | 0.025
38500 nM | 37700 nM | 7.4 µM (≈ 2.56 µg/mL) | – | – | CS(=O)(=O)c1ccc(-c2cncc(SCc3ccoc3)n2)cc1 [Compound 12] | – | – | – | – | 5.445 | 8.44 nM | 5.417 | 9.78 nM | 1.784 | 1.801 | 95% | 0.006
– | – | – | – | – | Cc1cc(CNc2cccc(-c3ccc(S(C)(=O)=O)cc3)n2)co1 [Compound 27] | 52000 nM | – | – | 8.8% | 4.789 | 13.3 nM | 4.853 | 10.9 nM | 1.134 | 1.134 | 99.7% | 0.037
36200 nM | 38700 nM | – | – | – | CS(=O)(=O)c1ccc(-c2cccc(NCc3cccs3)c2)cc1 [Compound 42] | – | – | – | – | 3.551 | 19.5 nM | 3.78 | 6.71 nM | 0.01187 | −0.01745 | – | –
16000 nM | – | – | 16000 nM | – | COc1ccc(NCc2cccs2)nc1-c1ccc(S(C)(=O)=O)nc1 [Compound 88] | – | 2.306 | 2.306 | – | 4.709 | 63.4 nM | 4.67 | 69.3 nM | – | – | – | –
5360 nM | – | – | 4760 nM | – | COc1ncc(-c2ccc(S(N)(=O)=O)cc2)nc1NCc1cccs1 [Compound 64] | – | 3.4205 | 3.473 | – | 5.595 | 36.1 nM | 5.591 | 36.6 nM | – | – | – | –
– | – | – | – | – | COc1ccc(NCc2ccoc2)nc1-c1ccc(S(C)(=O)=O)cc1 [Compound 66] | 52000 nM | 1.364 | 1.364 | – | 4.554 | 37.3 nM | 4.505 | 42 nM | – | – | – | –
– | – | – | – | – | CS(=O)(=O)c1ccc(-n2ccc3ccc(NCc4ccoc4)nc32)cc1 [Compound 83] | 52000 nM | 0.284 | – | – | 3.241 | 57.9 nM | 3.278 | 53.5 nM | – | – | – | –
– | – | – | – | 92.8% | COc1ncc(OCc2cccs2)nc1-c1ccc(S(C)(=O)=O)cc1 [Compound 8] | – | – | – | – | 5.399 | 6.59 nM | 5.446 | 7.15 nM | – | – | – | –
– | – | – | – | – | CS(=O)(=O)c1ccc(-c2cccc(NCc3ccc(F)cc3)n2)cc1 [Compound 13] | – | – | – | 62% | 4.5476 | 8.78 nM | 4.59 | 8.19 nM | – | – | 101% | 0.021
– | – | – | – | – | COc1ncc(NCc2cccs2)nc1-c1ccc(S(C)(=O)=O)nc1 [Compound 60] | 52000 nM | 2.694 | 2.694 | – | 5.902 | 32.3 nM | 5.891 | 33.4 nM | – | – | – | –

SMILES | IC50 [1, 14] | IC50 [1, 15] | solubility [6] | IC50 [1, 16] | Mouse Plasma Protein Stability % Remaining Avg [7] | IC50 [1] | COX1 10 minutes pge2/pge2d4 area ratio Avg. LLE [1, 8] | COX1 10 minutes pge2 area (counts) Avg. LLE [1, 9] | Human Microsome Stability % Remaining Avg [2] | COX2 2 minutes pge2/pge2d4 area ratio Avg. LLE ([3]; readout pge2/pge2d4 area ratio) | IC50 [3, 10] | COX2 2 minutes pge2 area (counts) Avg. LLE ([3]; readout pge2 area (counts)) | IC50 [3, 11] | COX1 10 minutes pge2/pge2d4 area ratio Avg. LLE [1, 12] | COX1 10 minutes pge2 area (counts) Avg. LLE [1, 13] | Rat Plasma Protein Stability % Remaining Avg [4] | fraction unbound [5]
CS(=O)(=O)c1ccc(-c2cccc(/C=C\c3cccs3)n2)cc1 [Compound 41] | – | 49600 nM | – | – | – | 52000 nM | – | – | – | 3.735 | 19 nM | 3.716 | 21.7 nM | 0.234 | 0.2543 | 100% | 0.021
CS(=O)(=O)c1ccc(-c2cncc(/C=C\c3cccs3)n2)cc1 [Compound 65] | – | – | – | 38000 nM | – | 52000 nM | 1.544 | 1.612 | – | 4.704 | 37 nM | 4.681 | 39 nM | – | – | – | –
